According to the CheMixHub ionic liquid set:
± gives the uncertainty stated by the source.

Assay: xn = mol fraction of the nth substance listed

C[n+]1ccn(CCCC#N)c1.O=S(=O)([N-]S(=O)(=O)C(F)(F)F)C(F)(F)F + O=C1CCCO1
electrical conductivity [S/m], 100 kPa
Conditions	x1 = 0.1003	x1 = 0.2005	x1 = 0.3003	x1 = 0.4005	x1 = 0.4997	x1 = 0.6003	x1 = 0.7001	x1 = 0.8002	x1 = 0.9003	x1 = 1
288.15 K	0.668 ± 0.01	0.774 ± 0.01	0.578 ± 0.01	0.43 ± 0.01	0.309 ± 0.01	0.225 ± 0.01	0.151 ± 0.01	0.11 ± 0.01	0.077 ± 0.01	0.061 ± 0.01
293.15 K	0.731 ± 0.01	0.838 ± 0.01	0.635 ± 0.01	0.482 ± 0.01	0.353 ± 0.01	0.266 ± 0.01	0.186 ± 0.01	0.141 ± 0.01	0.101 ± 0.01	0.083 ± 0.01
298.15 K	0.794 ± 0.01	0.908 ± 0.01	0.696 ± 0.01	0.54 ± 0.01	0.405 ± 0.01	0.312 ± 0.01	0.226 ± 0.01	0.176 ± 0.01	0.132 ± 0.01	0.112 ± 0.01
303.15 K	0.862 ± 0.01	0.976 ± 0.01	0.76 ± 0.01	0.603 ± 0.01	0.46 ± 0.01	0.365 ± 0.01	0.272 ± 0.01	0.217 ± 0.01	0.169 ± 0.01	0.146 ± 0.01
308.15 K	0.933 ± 0.01	1.05 ± 0.011	0.827 ± 0.01	0.669 ± 0.01	0.522 ± 0.01	0.424 ± 0.01	0.324 ± 0.01	0.265 ± 0.01	0.212 ± 0.01	0.185 ± 0.01
313.15 K	1.01 ± 0.01	1.122 ± 0.011	0.897 ± 0.01	0.741 ± 0.01	0.59 ± 0.01	0.487 ± 0.01	0.383 ± 0.01	0.319 ± 0.01	0.262 ± 0.01	0.231 ± 0.01
318.15 K	1.08 ± 0.011	1.2 ± 0.012	0.971 ± 0.01	0.817 ± 0.01	0.662 ± 0.01	0.556 ± 0.01	0.448 ± 0.01	0.379 ± 0.01	0.319 ± 0.01	0.285 ± 0.01
323.15 K	1.16 ± 0.012	1.28 ± 0.013	1.05 ± 0.011	0.899 ± 0.01	0.741 ± 0.01	0.633 ± 0.01	0.519 ± 0.01	0.448 ± 0.01	0.384 ± 0.01	0.346 ± 0.01
328.15 K	1.242 ± 0.012	1.36 ± 0.014	1.128 ± 0.011	0.987 ± 0.01	0.825 ± 0.01	0.714 ± 0.01	0.599 ± 0.01	0.521 ± 0.01	0.455 ± 0.01	0.414 ± 0.01
333.15 K	1.33 ± 0.013	1.444 ± 0.014	1.21 ± 0.012	1.08 ± 0.011	0.915 ± 0.01	0.799 ± 0.01	0.686 ± 0.01	0.606 ± 0.01	0.536 ± 0.01	0.491 ± 0.01
338.15 K	1.416 ± 0.014	1.532 ± 0.015	1.3 ± 0.013	1.18 ± 0.012	1.015 ± 0.01	0.896 ± 0.01	0.782 ± 0.01	0.695 ± 0.01	0.625 ± 0.01	0.575 ± 0.01
343.15 K	1.508 ± 0.015	1.622 ± 0.016	1.39 ± 0.014	1.28 ± 0.013	1.115 ± 0.011	0.996 ± 0.01	0.884 ± 0.01	0.793 ± 0.01	0.719 ± 0.01	0.669 ± 0.01

CC[n+]1ccn(C)c1.O=S(=O)([O-])C(F)(F)F + O=S(=O)([N-]S(=O)(=O)C(F)(F)F)C(F)(F)F.[Li+]
101 kPa, x1 = 1
Conditions	electrical conductivity [S/m]
288.15 K	0.605 ± 0.061
298.15 K	0.859 ± 0.086
333.15 K	2.24 ± 0.22
